Experimental data as given in PubChem BioAssay (NCI).
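How tested: cells in 96-well plates exposed to compound for 48 hours at five concentrations. GI50 is the concentration that inhibits growth by half. TGI is the concentration that stops growth completely.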

Columns and labels:
Test in all cases: NCI tumour cell line growth inhibition, 48 h
OVCAR-4 ovarian = test system: OVCAR-4 ovarian
UACC-257 melanoma = test system: UACC-257 melanoma
MDA-N = test system: MDA-N
K-562 leukemia = test system: K-562 leukemia
PC-3 prostate = test system: PC-3 prostate
A498 renal = test system: A498 renal
SN12C renal = test system: SN12C renal
SK-MEL-28 melanoma = test system: SK-MEL-28 melanoma
SR leukemia = test system: SR leukemia
IGROV1 ovarian = test system: IGROV1 ovarian
T-47D breast = test system: T-47D breast
RXF 393 renal = test system: RXF 393 renal
MDA-MB-435 = test system: MDA-MB-435
SNB-19 CNS = test system: SNB-19 CNS

Structure (SMILES)	TGI (OVCAR-4 ovarian)	TGI (UACC-257 melanoma)	TGI (MDA-N)	TGI (K-562 leukemia)	TGI (PC-3 prostate)	TGI (A498 renal)	TGI (SN12C renal)	TGI (SK-MEL-28 melanoma)	TGI (SR leukemia)	TGI (IGROV1 ovarian)	TGI (T-47D breast)	TGI (RXF 393 renal)	TGI (MDA-MB-435)	TGI (SNB-19 CNS)	GI50 (MDA-N)	GI50 (PC-3 prostate)	GI50 (A498 renal)	GI50 (SN12C renal)
COP(=O)(OC)/C(=C\c1cn(C(c2ccccc2)(c2ccccc2)c2ccccc2)cn1)NC(C)=O	> 100 µM	> 100 µM	> 100 µM	> 100 µM	> 100 µM	> 100 µM	> 100 µM	> 100 µM	> 100 µM	> 100 µM	> 100 µM	83.6 µM	> 100 µM	> 100 µM	–	–	–	–
CCOC(=O)c1c(N2CCCC2)[nH]c(=O)c(C(c2cccs2)c2c(O)c(C(=O)OCC)c(N3CCCC3)[nH]c2=O)c1O	> 100 µM	> 100 µM	> 100 µM	> 100 µM	> 100 µM	> 100 µM	> 100 µM	> 100 µM	> 100 µM	–	> 100 µM	> 100 µM	> 100 µM	> 100 µM	–	–	–	–
C=C(C)C12CC3CC/C(=N/O)C(C1)C3(N1CCOCC1)C/C2=N/O (stereo unspecified)	> 100 µM	> 100 µM	> 100 µM	> 100 µM	> 100 µM	> 100 µM	> 100 µM	> 100 µM	> 100 µM	> 100 µM	> 100 µM	> 100 µM	> 100 µM	> 100 µM	–	–	–	–
S=c1[nH]nc(NNc2ccccc2)n1Nc1ccccc1	> 100 µM	> 69.3 µM	> 100 µM	> 100 µM	> 100 µM	> 100 µM	> 100 µM	> 100 µM	> 91.1 µM	> 100 µM	> 59.6 µM	> 100 µM	> 100 µM	> 100 µM	–	–	–	–
COc1ccc(C(=O)Nc2ccc3oc(-c4ccccc4)nc3c2)cc1	> 100 µM	> 100 µM	> 100 µM	> 100 µM	> 100 µM	> 100 µM	> 100 µM	> 100 µM	> 100 µM	> 100 µM	> 100 µM	> 100 µM	> 100 µM	> 100 µM	–	–	–	–
CCOP(=O)(OCC)/C(C#N)=C/c1c[nH]c2ccccc12	> 100 µM	> 100 µM	> 100 µM	> 100 µM	> 100 µM	> 100 µM	> 100 µM	> 100 µM	> 100 µM	> 100 µM	> 100 µM	> 100 µM	> 100 µM	> 100 µM	–	–	–	–
C=CCn1c(-c2ccc(-c3cs/c(=N\N=O)n3CC=C)cc2)cs/c1=N\N=O	57.4 µM	> 100 µM	> 100 µM	> 100 µM	> 100 µM	> 100 µM	> 100 µM	> 100 µM	> 100 µM	> 100 µM	> 100 µM	53 µM	> 100 µM	> 100 µM	–	–	–	–
CC1=NN=C(N)NC1=CC(Sc1ccc(Cl)cc1)c1c(O)ccc2ccccc12 (stereo unspecified)	> 64.7 µM	> 87.1 µM	> 100 µM	> 100 µM	53.4 µM	37.5 µM	97.3 µM	> 62.6 µM	> 100 µM	37.3 µM	58.9 µM	20.3 µM	> 86.6 µM	> 74.9 µM	–	–	–	–
Nc1nc(N)c2nc(CNc3ccc(C(=O)NC(CCCCNC(=O)c4ccccc4C(=O)O)C(=O)O)cc3)cnc2n1 (stereo unspecified)	> 100 µM	> 100 µM	> 100 µM	> 100 µM	> 100 µM	> 100 µM	> 100 µM	> 100 µM	> 100 µM	> 100 µM	> 100 µM	> 100 µM	> 31.6 µM	> 100 µM	0.00464 µM	0.000432 µM	0.0821 µM	0.0127 µM
CC#CC(O)(C(=O)OC1CC2CCC(C1)N2C)C1CCCC1 (stereo unspecified)	> 100 µM	> 100 µM	> 100 µM	> 100 µM	> 100 µM	> 100 µM	> 100 µM	> 100 µM	> 100 µM	> 100 µM	> 100 µM	> 100 µM	> 100 µM	> 100 µM	–	–	–	–
Cc1cc(-c2nc3cccc(F)c3s2)ccc1N	> 100 µM	> 100 µM	> 100 µM	> 100 µM	> 100 µM	> 100 µM	> 91.1 µM	> 100 µM	> 74.8 µM	> 100 µM	> 100 µM	> 100 µM	> 100 µM	> 100 µM	–	–	–	–
CC(C)(C)C1CCC2c3c([nH]c4ccccc34)C3C(=O)N(c4ccc5c(c4)C(=O)c4ccccc4C5=O)C(=O)C3C2C1 (stereo unspecified)	> 100 µM	> 100 µM	> 100 µM	> 100 µM	> 100 µM	> 100 µM	> 100 µM	> 100 µM	> 100 µM	> 100 µM	> 100 µM	> 100 µM	> 100 µM	> 100 µM	–	–	–	–
COc1cc2c(cc1OC)C(=O)N(NC1=NCCN1)C2=O	> 100 µM	> 100 µM	> 100 µM	> 100 µM	> 100 µM	> 100 µM	> 100 µM	> 100 µM	> 100 µM	> 100 µM	> 100 µM	> 100 µM	> 100 µM	> 100 µM	–	–	–	–
COc1ccccc1CNC(=O)[C@H](Cc1ccc(O)cn1)NC(C)=O	> 100 µM	> 100 µM	> 100 µM	> 100 µM	> 100 µM	> 100 µM	> 100 µM	> 100 µM	> 100 µM	> 100 µM	> 100 µM	> 100 µM	> 100 µM	> 100 µM	–	–	–	–
COC(=O)c1ccc(NCc2cc(O)ccc2O)cc1	30.5 µM	29.2 µM	19 µM	15.1 µM	19.7 µM	29.7 µM	41.2 µM	34.8 µM	> 32.4 µM	24.5 µM	3.4 µM	20.2 µM	17.3 µM	70.5 µM	–	–	–	–
C/C=C/[C@H](O[Si](C)(C)C(C)(C)C)[C@@H](O)/C=C/C(=O)OCC	27.8 µM	40.8 µM	42.8 µM	43.9 µM	> 100 µM	67.9 µM	48.1 µM	32.4 µM	44.1 µM	50.4 µM	89.8 µM	43.1 µM	38.5 µM	28.7 µM	–	–	–	–
COCCOC(=O)C(C)=[N+]=[N-]	> 100 µM	> 100 µM	> 100 µM	> 100 µM	> 100 µM	> 100 µM	> 100 µM	> 100 µM	> 100 µM	> 100 µM	> 100 µM	> 100 µM	> 100 µM	> 100 µM	–	–	–	–
O=C1c2ccccc2C(=O)c2oc(Br)cc21	3.55 µM	0.784 µM	0.267 µM	4.77 µM	11.1 µM	3.49 µM	2.22 µM	0.934 µM	5.78 µM	3.08 µM	3.6 µM	2.87 µM	0.311 µM	2.87 µM	–	–	–	–
CC(C)C(NC(=O)C(Cc1ccccc1)NC(=O)[C@H]1CCC[C@H]1NC(=O)C(N)Cc1ccc(O)cc1)C(N)=O (stereo partly specified)	> 100 µM	> 100 µM	> 100 µM	> 100 µM	> 100 µM	> 100 µM	> 100 µM	> 100 µM	> 100 µM	> 100 µM	> 100 µM	> 100 µM	> 100 µM	> 100 µM	–	–	–	–
O=c1[nH]c2c(c(=O)[nH]1)SSC2	31.4 µM	14.8 µM	3.17 µM	5.52 µM	> 71.1 µM	52 µM	7.95 µM	18.7 µM	2.09 µM	56.8 µM	25.2 µM	28.5 µM	4.67 µM	> 81.3 µM	–	–	–	–
CN(C)CC1CN=C(NC(=O)Nc2ccccc2)O1 (stereo unspecified)	> 100 µM	> 100 µM	> 100 µM	> 100 µM	> 100 µM	> 100 µM	> 100 µM	> 100 µM	> 100 µM	> 100 µM	> 100 µM	> 100 µM	> 100 µM	> 100 µM	–	–	–	–
N#CC(C#N)=Cn1c(=S)[nH]c2ccccc21	> 100 µM	> 100 µM	> 100 µM	> 100 µM	> 100 µM	> 100 µM	> 100 µM	> 100 µM	> 100 µM	> 100 µM	> 100 µM	> 100 µM	> 100 µM	> 100 µM	–	–	–	–
CC(=O)O[C@@H](C1C[C@@H](C)[C@H]2[C@@](O)(O1)[C@H](O)[C@@]1(C)C3=CC[C@H]4C(C)(C)[C@@H](OC5OCC(O)C(O)C5O)CC[C@@]45C[C@@]35CC[C@]21C)C(C)(C)O (stereo partly specified)	> 100 µM	38.4 µM	73.6 µM	> 100 µM	50.7 µM	63 µM	54.8 µM	57 µM	49.8 µM	> 100 µM	67.7 µM	36.9 µM	53.3 µM	> 100 µM	–	–	–	–
CNCCC=C1c2ccccc2CCc2ccccc21	28.6 µM	19.9 µM	29 µM	30.5 µM	27.4 µM	28.9 µM	29.2 µM	27 µM	32.7 µM	30.7 µM	23.5 µM	22.6 µM	28.2 µM	31.6 µM	–	–	–	–
C[C@]12CC[C@H](O)CC1=CC[C@@H]1C2CC[C@]2(C)Nc3c(cnn3-c3ccc(F)cc3)CC12 (stereo partly specified)	55.9 µM	> 100 µM	> 100 µM	> 100 µM	> 100 µM	> 47.6 µM	> 100 µM	> 100 µM	> 100 µM	> 100 µM	> 100 µM	7.7 µM	> 100 µM	> 100 µM	–	–	–	–
S=C1N=C(Cl)/C(=C\c2ccccc2)N1	> 100 µM	> 100 µM	> 100 µM	> 100 µM	> 100 µM	> 100 µM	> 100 µM	> 100 µM	> 100 µM	> 100 µM	> 100 µM	> 100 µM	> 100 µM	> 100 µM	–	–	–	–
COc1ccc(N2C(=O)CC(c3c[nH]c4ncccc34)C2=O)cc1 (stereo unspecified)	47 µM	38.5 µM	20.1 µM	24.9 µM	> 31.6 µM	> 100 µM	35.2 µM	> 58.3 µM	> 20 µM	44.6 µM	50.4 µM	42.5 µM	19.4 µM	> 100 µM	–	–	–	–
